Measured values: ChEMBL document CHEMBL5038635, “Discovery of Salidroside-Derivated Glycoside Analogues as Novel Angiogenesis Agents to Treat Diabetic Hind Limb Ischemia” (J Med Chem, 2022)
The source made the active and inactive calls. No cut-off for these calls is given here.

What was measured:
[1] = tested on: MOVAS-1; assay: Angiogenesis activity in mouse MOVAS-1 cells assessed as suppression of cell migration using conditioned medium of mouse C2C12 cells with silenced HIF-1alpha treated at 30 uM under hyperglycemic condition for 12 hrs followed by hypoxia for 24 hrs in presence of PDGF-BB inhibitor CP868596 by crystal violet dye based transwell assay; type: functional; conditions: time 36.0 hrs
[2] = tested on: C2C12; assay: Angiogenic activity in mouse C2C12 cells assessed as reversal of hyperglycemia-induced reduction in total cell number measured after 12 to 36 hrs; type: functional, cell-based
[3] = Octanol/Water partition coefficient, log P of the compound by HPLC-UV analysis
[4] = tested on: C2C12; assay: Angiogenic activity in mouse C2C12 cells assessed as reversal of hyperglycemia-induced reduction in cell number by measuring cell proliferation measured after 12 to 36 hrs; type: functional, cell-based
[5] = tested on: HUVEC; assay: Antiangiogenesis activity in human HUVEC cells assessed as suppression of cell migration using conditioned medium of mouse C2C12 cells with silenced HIF-1alpha treated at 30 uM under hyperglycemic condition for 12 hrs followed by hypoxia for 24 hrs in presence of PDGF-BB inhibitor CP868596 by crystal violet dye based transwell assay; type: functional; conditions: time 36.0 hrs
[6] = tested on: MOVAS-1; assay: Induction proliferation of mouse MOVAS-1 cells assessed as increase in number of EdU-positive cells using conditioned medium of mouse C2C12 cells with silenced HIF-1alpha treated at 30 uM under hyperglycemic condition for 12 hrs followed by hypoxia for 24 hrs in presence of VEGFR inhibitor Ki8751 by EdU-incorporation assay; type: functional, cell-based; conditions: time 36.0 hrs
[7] = tested on: Mus musculus; assay: Antidiabetic activity in diabetic HLI C57BL/6 mouse model assessed as effect on blood glucose level at 15 mg/kg administered intramuscular; type: functional, organism-based
[8] = tested on: C2C12; assay: Upregulation of ANGPTL4 protein expression in mouse C2C12 cells at 30 uM by Western blot analysis; type: functional, cell-based
[9] = tested on: C2C12; assay: Upregulation of HGF protein expression in mouse C2C12 cells at 30 uM by Western blot analysis; type: functional, cell-based
[10] = tested on: C2C12; assay: Apoptotic rate in hyperglycemia-treated mouse C2C12 cells assessed as viable cells at 30 uM by AnnexinV-FITC/PI staining based flow cytometric analysis (reference value: 81.90 %); type: functional; conditions: read-out: Activity
[11] = tested on: C2C12; assay: Induction of F-actin polymerization in mouse C2C12 cells at 30 uM pretreated with compound for 12 hr followed by hypoxic condition for 24 hrs by phalloidin staining based confocal microscopy; type: functional, cell-based; conditions: time 36.0 hrs
[12] = target: Hypoxia-inducible factor 1-alpha (Mus musculus) (UniProt Q61221); assay: Inhibition of HIF-1alpha in mouse C2C12 cells transfected with PDGF-B driven firefly luciferase gene assessed as transcriptional activity pretreated with compound for 12 hr followed by hypoxic condition for 24 hrs by dual luciferase reporter gene assay; type: cell-based; conditions: time 36.0 hrs
Sequence of Hypoxia-inducible factor 1-alpha (Mus musculus) (Q61221 whole entry): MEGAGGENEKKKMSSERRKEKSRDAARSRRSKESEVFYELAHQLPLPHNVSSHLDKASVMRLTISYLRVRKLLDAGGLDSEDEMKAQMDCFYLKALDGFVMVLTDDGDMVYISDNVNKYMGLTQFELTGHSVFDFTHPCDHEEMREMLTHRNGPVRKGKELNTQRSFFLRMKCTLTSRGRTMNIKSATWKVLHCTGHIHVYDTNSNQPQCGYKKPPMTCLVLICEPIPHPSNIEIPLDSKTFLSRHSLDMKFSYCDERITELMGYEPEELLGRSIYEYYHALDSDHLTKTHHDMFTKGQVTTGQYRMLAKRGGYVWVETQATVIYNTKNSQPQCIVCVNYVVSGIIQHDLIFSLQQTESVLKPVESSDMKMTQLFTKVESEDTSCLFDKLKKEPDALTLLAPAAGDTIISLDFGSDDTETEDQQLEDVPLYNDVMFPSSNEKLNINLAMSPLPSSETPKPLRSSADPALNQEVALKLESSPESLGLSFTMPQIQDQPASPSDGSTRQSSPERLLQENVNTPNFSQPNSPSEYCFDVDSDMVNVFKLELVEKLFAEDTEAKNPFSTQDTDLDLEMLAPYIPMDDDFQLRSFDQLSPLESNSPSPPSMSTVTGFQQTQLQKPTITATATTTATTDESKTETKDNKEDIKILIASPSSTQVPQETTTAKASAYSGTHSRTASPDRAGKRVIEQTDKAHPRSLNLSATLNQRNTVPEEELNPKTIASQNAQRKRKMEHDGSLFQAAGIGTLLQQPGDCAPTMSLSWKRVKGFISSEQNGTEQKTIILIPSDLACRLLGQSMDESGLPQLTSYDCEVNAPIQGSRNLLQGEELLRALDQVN

[13] = tested on: Mus musculus; assay: Angiogenic activity in diabetic HLI C57BL/6 mouse model assessed as increase in number of alpha-SMA-positive cells at 30 mg/kg, im administered for 21 days followed by surgery by immunofluorescence analysis; type: functional, organism-based; conditions: time 21.0 day
[14] = tested on: C2C12; assay: Induction of proliferation of hyperglycemia-induced mouse C2C12 cell apoptosis assessed as decrease in Annexin V/PI-positive cells at 30 uM pretreated with compound under hyperglycemia condition for 12 hr followed by hypoxia for 24 hrs; type: functional, cell-based; conditions: time 36.0 hrs
[15] = tested on: C2C12; assay: Upregulation of TNFRSF12A protein expression in mouse C2C12 cells at 30 uM by Western blot analysis; type: functional, cell-based
[16] = tested on: MOVAS-1; assay: Induction proliferation of mouse MOVAS-1 assessed as increase in number of EdU-positive cells using conditioned medium of mouse C2C12 cells with silenced HIF-1alpha treated at 30 uM under hyperglycemic condition for 12 hrs followed by hypoxia for 24 hrs by EdU-incorporation assay; type: functional, cell-based; conditions: time 36.0 hrs
[17] = tested on: C2C12; assay: Induction proliferation of mouse C2C12 cells assessed as suppression of apoptotic rate at 30 uM under normoglycemic condition by Annexin V/PI staining based Flowcytometry method; type: functional, cell-based
[18] = tested on: HUVEC; assay: Induction proliferation of human HUVEC cells assessed as increase in number of EdU-positive cells using conditioned medium of mouse C2C12 cells with silenced HIF-1alpha treated at 30 uM under hyperglycemic condition for 12 hrs followed by hypoxia for 24 hrs in presence of VEGFR inhibitor Ki8751 by EdU-incorporation assay; type: functional, cell-based; conditions: time 36.0 hrs
[19] = Dissociation constant, pKa of compound by UV-visible spectrometric method; type: physicochemical
[20] = tested on: C2C12; assay: Reversal of hyperglycemia-induced VEGF-A protein level reduction in mouse C2C12 cells measured at 30 uM by ELISA; type: functional, cell-based
[21] = tested on: C2C12; assay: Induction proliferation of mouse C2C12 cells with silenced HIF-1alpha at 30 uM pretreated with compound in hyperglycemia condition for 12 hr followed by hypoxia condition for 24 hrs by EdU-incorporation assay; type: functional, cell-based; conditions: time 36.0 hrs
[22] = tested on: C2C12; assay: Increase in PDGF-BB protein expression level in HIF-1 alpha silenced mouse C2C12 cells at 30 uM by Western blot analysis; type: functional, cell-based
[23] = tested on: C2C12; assay: Angiogenesis activity in mouse C2C12 cells assessed as decrease in apoptotic rate at 30 uM under hyperglycemia condition presence of MeOE2 inhibitor by Annexin V/PI staining based Flowcytometry method; type: functional, cell-based
[24] = tested on: C2C12; assay: Upregulation of VEGF-A protein expression in mouse C2C12 cells at 30 uM by Western blot analysis; type: functional, cell-based
[25] = tested on: C2C12; assay: Reversal of hyperglycemia-induced PDGF-BB protein level reduction in mouse C2C12 cells measured at 30 uM by Western blot analysis; type: functional, cell-based
[26] = tested on: Mus musculus; assay: Antidiabetic activity in diabetic HLI C57BL/6 mouse model assessed as morphological changes at 30 mg/kg administered intramuscularly; type: functional, organism-based
[27] = tested on: C2C12; assay: Upregulation of CXCL17 protein expression in mouse C2C12 cells at 30 uM by Western blot analysis; type: functional, cell-based
[28] = tested on: Mus musculus; assay: Antidiabetic activity in diabetic HLI C57BL/6 mouse model assessed as increase in blood perfusion recovery at 30 mg/kg administered intramuscularly measured after 14 days; type: functional; conditions: time 14 day
[29] = Microsomal stability in rat liver microsomes assessed as compound remaining after 30 min by HPLC analysis; type: ADME, Microsome; conditions: read-out: Stability
[30] = tested on: C2C12; assay: Apoptotic rate in hyperglycemia-treated mouse C2C12 cells assessed as necrotic cells at 30 uM by AnnexinV-FITC/PI staining based flow cytometric analysis (reference value: 0.56 %); type: functional
[31] = tested on: C2C12; assay: Angiogenic activity in mouse C2C12 cells assessed as reversal of hyperglycemia-induced reduction in total cell number at 300 uM measured after 24 to 36 hrs by EdU-incorporation assay; type: functional, cell-based; conditions: time 24-36 hrs
[32] = tested on: HUVEC; assay: Induction proliferation of human HUVEC cells assessed as increase in number of EdU-positive cells using conditioned medium of mouse C2C12 cells treated at 30 uM under hyperglycemic condition for 12 hrs followed by hypoxia for 24 hrs by EdU-incorporation assay; type: functional; conditions: time 36 hrs
[33] = tested on: C2C12; assay: Down regulation of PHD3 mRNA expression in mouse C2C12 cells at 30 uM by qRT-PCR analysis; type: functional, cell-based
[34] = tested on: C2C12; assay: Induction of proliferation of hyperglycemia-induced mouse C2C12 cell apoptosis assessed as decrease in Annexin V/PI-positive cells at 15 uM pretreated with compound under hyperglycemia condition for 12 hr followed by hypoxia for 24 hrs; type: functional, cell-based; conditions: time 36.0 hrs
[35] = tested on: C2C12; assay: Angiogenic activity in mouse C2C12 cells assessed as accumulation ANG1 protein expression at 300 uM by Western blot analysis; type: functional, cell-based

COc1ccc(Cc2cccc(O[C@@H]3O[C@H](CO)[C@@H](O)[C@H](O)[C@H]3O)c2)cc1
Activity [1]: inactive | EC50 [2]: 12.7 µM | logP [3]: 0.971 | EC50 [4]: 17.3 µM | Activity [5]: inactive | Activity [6]: inactive | Activity [7]: Active | Activity [8]: Active | Activity [9]: Active | viability at 30 µM [10]: 93.6% | Activity [11]: Active | inhibition [12]: Active | Activity [13]: Active | Activity [14]: Active | Activity [15]: Active | Activity [16]: Active | Activity [17]: Active | Activity [18]: inactive | pKa [19]: > 14 | Activity [20]: Active | Activity [21]: inactive | Activity [22]: inactive | Activity [23]: inactive | Activity [24]: Active | Activity [25]: Active | Activity [26]: Active | Activity [27]: Active | Activity [28]: 70% | remaining at 0.5 h [29]: 79.4% | Activity [30]: 0.35% | Activity [31]: inactive | fold change (FC) [32]: 2 | Activity [33]: Active | Activity [34]: Active | inhibition [35]: Active
